Assay results from patent US9669036B2, “Modulation of reactivation of a latent virus” (priority 2013, dated 2017).

System: latent HSV-1(F)
Type: cell-based
Settings: for reactivation of HSV in trigeminal ganglia: ganglia harvested 30 days after infection, TSA 400 nM, MS275 or MC1568 10 μM, 20 μM; for lowest effective concentration: activation of latent HSV; for lowest effective concentration / Significant Activation of Latent HSV: ganglionic organ cultures in medium containing NGF and EGF; for Significant Activation of Latent HSV: three concentrations tested; for accumulation of viral mRNAs with cycloheximide compared with the drug alone / amounts of the LAT and miRNAs in cycloheximide-treated ganglia compared with the drug alone: cycloheximide 150 μg/ml, TSA 400 nM or NSC74859 10 μM
[1] = medium containing NGF and EGF, 24 h
[2] = NGF+EGF medium, 24 h, CTB 200 μM, 500 μM

**Q.** How did the “reactivation of HSV in trigeminal ganglia” value [1] turn out when `Nc1ccccc1NC(=O)c1ccc(CNC(=O)OCc2cccnc2)cc1` [MS275, pyridin-3-ylmethyl 4-((2-aminophenyl)carbamoyl)benzylcarbamate] was run?
**A.** The value was “induced the reactivation of HSV”.

**Q.** `NC1(c2ccc(-c3nc4ccn5c(=O)[nH]nc5c4cc3-c3ccccc3)cc2)CCC1` [MK-2206] was tested. Which lowest effective concentration (24 h) did it give?
**A.** Its lowest effective concentration is 2.5 nM lowest effective.

**Q.** What about the “Significant Activation of Latent HSV” value (24 h after excision) of the same compound?
**A.** The value was “Yes”.

**Q.** With `CO[C@H]1C[C@@H]2CC[C@@H](C)[C@@](O)(O2)C(=O)C(=O)N2CCCC[C@H]2C(=O)O[C@H]([C@H](C)C[C@@H]2CC[C@@H](O)[C@H](OC)C2)CC(=O)[C@H](C)/C=C(\C)[C@@H](O)[C@@H](OC)C(=O)[C@H](C)C[C@H](C)/C=C/C=C/C=C/1C` [Rapamycin] as the compound, how does the lowest effective concentration (24 h) read?
**A.** The lowest effective concentration was 1 nM lowest effective.

**Q.** What does the source list for `CC(/C=C/C(=O)NO)=C\[C@@H](C)C(=O)c1ccc(N(C)C)cc1` [TSA, Trichostatin A]?
**A.** accumulation of viral mRNAs with cycloheximide compared with the drug alone (NGF+EGF medium, 24 h): similar; amounts of the LAT and miRNAs in cycloheximide-treated ganglia compared with the drug alone (NGF+EGF medium, 24 h): higher; accumulation of mRNAs relative to freshly excised ganglia (NGF+EGF+TSA (400 nM), with or without cycloheximide 150 μg/ml, 24 h): 10 fold; reactivation of HSV in trigeminal ganglia [1]: induced the reactivation of HSV

**Q.** For `Cc1sc2c(c1C)C(c1ccc(Cl)cc1)=N[C@@H](CC(=O)OC(C)(C)C)c1nnc(C)n1-2` [JQ1], which “Significant Activation of Latent HSV” value (24 h after excision) is on record?
**A.** The value was “No”.

**Q.** How did the “Significant Activation of Latent HSV” value (24 h after excision) turn out when `C[C@@H]1CCN(C(=O)CC#N)C[C@@H]1N(C)c1ncnc2[nH]ccc12` [Tofacitinib] was run?
**A.** Its value is “No”.

**Q.** What does the source list for `CCOc1ccccc1C(=O)Nc1ccc(Cl)c(C(F)(F)F)c1` [CTB, N-(4-Chloro-3-trifluoromethyl-phenyl)-2-ethoxy-benzamide]?
**A.** decrease of miRNAs and the LAT following exposure to the drug [2]: approximately 10 fold; increase of all viral mRNAs following exposure to the drug [2]: approximately 50 fold

**Q.** What does the source list for `CS(=O)(=O)N1CCN(Cc2cc3nc(-c4cccc5[nH]ncc45)nc(N4CCOCC4)c3s2)CC1` [GDC-0941]?
**A.** lowest effective concentration (24 h): 10 nM lowest effective; Significant Activation of Latent HSV (24 h after excision): Yes

**Q.** `COc1cc2c(NC3CCN(C(C)C)CC3)nc(C3CCCCC3)nc2cc1OCCCN1CCCC1` [UNC0638] was tested. Which “Significant Activation of Latent HSV” value (24 h after excision) did it give?
**A.** The value was “No”.

**Q.** For `COc1cc(/C=C/C(=O)CC(=O)/C=C/c2ccc(O)c(OC)c2)ccc1O` [curcumin], which “reactivation of HSV and degradation of the LAT and miRNAs” value (curcumin 100 μM, 300 μM, 24 h, independent of medium (NGF+EGF or antibody to NGF)) is on record?
**A.** Its value is “blocked”.

**Q.** And the “accumulation of the LAT” value (curcumin at the higher concentration (300 μM))?
**A.** The value was “suppressed”.

**Q.** What about the “accumulation of small amounts of mRNAs normally detected at the time of excision of the ganglia” value (medium containing antibody to NGF, compared with freshly excised ganglia) of the same compound?
**A.** The value was “suppressed”.

**Q.** `Cn1c(=O)n(-c2ccc(C(C)(C)C#N)cc2)c2c3cc(-c4cnc5ccccc5c4)ccc3ncc21` [BEZ-235] was tested. Which lowest effective concentration (24 h) did it give?
**A.** Its lowest effective concentration is 40 nM lowest effective.

**Q.** What about the “Significant Activation of Latent HSV” value (24 h after excision) of the same compound?
**A.** Its value is “Yes”.

**Q.** How did the “accumulation of viral mRNAs with cycloheximide compared with the drug alone” value (NGF+EGF medium, 24 h) turn out when `Cc1ccc(S(=O)(=O)OCC(=O)Nc2ccc(C(=O)O)c(O)c2)cc1` [NSC74859] was run?
**A.** Its value is “consistently lower”.

**Q.** And the “amounts of the LAT and miRNAs in cycloheximide-treated ganglia compared with the drug alone” value (NGF+EGF medium, 24 h)?
**A.** The value was “higher”.

**Q.** And the “representatives of all four temporally regulated groups of viral genes (ICP27, TK, VP16, UL41 mRNAs)” value (NGF+EGF medium, 24 h after excision, NSC74859 10 mM and 50 μM)?
**A.** The value was “upregulated”.

**Q.** How did the lowest effective concentration (24 h) turn out when `Cc1[nH]c2ccccc2c1CCNCc1ccc(/C=C/C(=O)NO)cc1` [Panobinostat] was run?
**A.** The lowest effective concentration was 0.5 nM lowest effective.

**Q.** `Cn1cc(/C=C/C(=O)c2cccc(F)c2)cc1/C=C/C(=O)NO` [MC1568, (E)-3-(4-((E)-3-(3-fluorophenyl)-3-oxoprop-1-enyl)-1-methyl-1H-pyrrol-2-yl)-N-hydroxyacrylamide] was tested. Which “reactivation of HSV in trigeminal ganglia” value [1] did it give?
**A.** Its value is “induced the reactivation of HSV”.

**Q.** How did the “Significant Activation of Latent HSV” value (24 h after excision) turn out when `O=C(Nc1ccc2c(O)cc(S(=O)(=O)O)cc2c1)Nc1ccc2c(O)cc(S(=O)(=O)O)cc2c1` [AMI-1] was run?
**A.** Its value is “No”.

**Q.** What about the “Comments: activation of latent HSV” value (medium containing NGF and EGF, all concentrations tested) of the same compound?
**A.** The value was “No activation”.
